Assay results as given in patent US12048709B2 (scPharmaceuticals Inc., priority 2019, dated 2024).
Like-named read-outs stand apart in the source and are kept apart here.

Key:
[1] = Study 4
Method: (§1) Samples were tumbled for 48 hours at ambient conditions and protected from light.
A full factorial DOE study was performed to determine the optimal amounts of NMP, benzyl alcohol and buffer (tromethamine) required to produce the highest solubility. Any potential synergistic effects stemming from various excipient combinations were also investigated.

[2] = for Apparent pH: 2% Benzyl Alcohol
Method: as §1

[3] = not given; remark: listed apart in the source
[4] = 200 mM Sodium Phosphate, target pH 6.0, t24 h
[5] = 200 mM Tromethamine/HCl, target pH 8.5, t2 h

pH variability [1]: up to 0.3 pH units | Apparent pH ([2]; 100 mM Tromethamine pH 5.0, 25% NMP, t2 h): 5.0 | Apparent pH ([2]; 100 mM Tromethamine pH 5.0, 25% NMP, t24 h): 4.6 | Apparent pH ([2]; 100 mM Tromethamine pH 5.0, 25% NMP, t48 h): 5.1 | Apparent pH ([2]; 100 mM Tromethamine pH = 4.0, 25% NMP, t2 h): 3.9 | Apparent pH ([2]; 100 mM Tromethamine pH = 4.0, 25% NMP, t24 h): 3.6 | Apparent pH ([2]; 100 mM Tromethamine pH = 4.0, 25% NMP, t48 h): 4.7 | pH variability ([2]; Study 6, pH 4.0 test samples): 0.7 units | Osmolarity (~50 mM Potassium Phosphate, target pH 6.0, t2 h): 108 mOsm/Kg | Osmolarity (~50 mM Potassium Phosphate, target pH 6.0, t24 h): 105 mOsm/Kg | Osmolarity (~50 mM Potassium Phosphate, target pH 6.0, t48 h): 115 mOsm/Kg | Osmolarity (~50 mM Potassium Phosphate, target pH 7.4, t2 h): 193 mOsm/Kg | Osmolarity (~50 mM Potassium Phosphate, target pH 7.4, t24 h): 190 mOsm/Kg | Osmolarity (~50 mM Potassium Phosphate, target pH 7.4, t48 h): 213 mOsm/Kg | Osmolarity (~50 mM Potassium Phosphate, target pH 8.5, t2 h): 265 mOsm/Kg | Osmolarity (~50 mM Potassium Phosphate, target pH 8.5, t24 h): 255 mOsm/Kg | Osmolarity (~50 mM Potassium Phosphate, target pH 8.5, t48 h): 283 mOsm/Kg | Osmolarity (~50 mM Sodium Phosphate, target pH 6.0, t2 h): 212 mOsm/Kg | Osmolarity (~50 mM Sodium Phosphate, target pH 6.0, t24 h): 118 mOsm/Kg | Osmolarity (~50 mM Sodium Phosphate, target pH 6.0, t48 h): 141 mOsm/Kg | Osmolarity (~50 mM Sodium Phosphate, target pH 7.4, t2 h): 232 mOsm/Kg | Osmolarity (~50 mM Sodium Phosphate, target pH 7.4, t24 h): 233 mOsm/Kg | Osmolarity (~50 mM Sodium Phosphate, target pH 7.4, t48 h): 237 mOsm/Kg | Osmolarity (~50 mM Sodium Phosphate, target pH 8.5, t2 h): 241 mOsm/Kg | Osmolarity (~50 mM Sodium Phosphate, target pH 8.5, t24 h): 242 mOsm/Kg | Osmolarity (~50 mM Sodium Phosphate, target pH 8.5, t48 h): 276 mOsm/Kg | Osmolarity (~50 mM Tromethamine/HCl, target pH 6.0, t2 h): 124 mOsm/Kg | Osmolarity (~50 mM Tromethamine/HCl, target pH 6.0, t24 h): 129 mOsm/Kg | Osmolarity (~50 mM Tromethamine/HCl, target pH 6.0, t48 h): 133 mOsm/Kg | Osmolarity (~50 mM Tromethamine/HCl, target pH 7.4, t2 h): 165 mOsm/Kg | Osmolarity (~50 mM Tromethamine/HCl, target pH 7.4, t24 h): 181 mOsm/Kg | Osmolarity (~50 mM Tromethamine/HCl, target pH 7.4, t48 h): 186 mOsm/Kg | Osmolarity (~50 mM Tromethamine/HCl, target pH 8.5, t2 h): 242 mOsm/Kg | Osmolarity (~50 mM Tromethamine/HCl, target pH 8.5, t24 h): 239 mOsm/Kg | Osmolarity (~50 mM Tromethamine/HCl, target pH 8.5, t48 h): 258 mOsm/Kg | Osmolarity ([3]; 200 mM Citrate, target pH 6.0, t2 h): 516 mOsm/kg | Osmolarity ([3]; 200 mM Citrate, target pH 6.0, t24 h): 533 mOsm/kg | Osmolarity ([3]; 200 mM Citrate, target pH 6.0, t48 h): 557 mOsm/kg | Osmolarity ([3]; 200 mM Citrate, target pH 7.4, t2 h): 488 mOsm/kg | Osmolarity ([3]; 200 mM Citrate, target pH 7.4, t24 h): 484 mOsm/kg | Osmolarity ([3]; 200 mM Citrate, target pH 7.4, t48 h): 549 mOsm/kg | Osmolarity ([3]; 200 mM Histidine/HCl, target pH 6.0, t2 h): 441 mOsm/kg | Osmolarity ([3]; 200 mM Histidine/HCl, target pH 6.0, t24 h): 392 mOsm/kg | Osmolarity ([3]; 200 mM Histidine/HCl, target pH 6.0, t48 h): 477 mOsm/kg | Osmolarity ([3]; 200 mM Histidine/HCl, target pH 7.4, t2 h): 588 mOsm/kg | Osmolarity ([3]; 200 mM Histidine/HCl, target pH 7.4, t24 h): 584 mOsm/kg | Osmolarity ([3]; 200 mM Histidine/HCl, target pH 7.4, t48 h): 616 mOsm/kg | Osmolarity ([3]; 200 mM Histidine/HCl, target pH 8.5, t2 h): 553 mOsm/kg | Osmolarity ([3]; 200 mM Histidine/HCl, target pH 8.5, t24 h): 558 mOsm/kg | Osmolarity ([3]; 200 mM Histidine/HCl, target pH 8.5, t48 h): 678 mOsm/kg | Osmolarity ([3]; 200 mM Potassium Phosphate, target pH 6.0, t2 h): 384 mOsm/kg | Osmolarity ([3]; 200 mM Potassium Phosphate, target pH 6.0, t24 h): 383 mOsm/kg | Osmolarity ([3]; 200 mM Potassium Phosphate, target pH 6.0, t48 h): 376 mOsm/kg | Osmolarity ([3]; 200 mM Potassium Phosphate, target pH 7.4, t2 h): 462 mOsm/kg | Osmolarity ([3]; 200 mM Potassium Phosphate, target pH 7.4, t24 h): 471 mOsm/kg | Osmolarity ([3]; 200 mM Potassium Phosphate, target pH 7.4, t48 h): 481 mOsm/kg | Osmolarity ([3]; 200 mM Potassium Phosphate, target pH 8.5, t2 h): 487 mOsm/kg | Osmolarity ([3]; 200 mM Potassium Phosphate, target pH 8.5, t24 h): 497 mOsm/kg | Osmolarity ([3]; 200 mM Potassium Phosphate, target pH 8.5, t48 h): 423 mOsm/kg | Osmolarity ([3]; 200 mM Sodium Phosphate, target pH 6.0, t2 h): 388 mOsm/kg | Apparent pH [3, 4]: 5.1 | Osmolarity [3, 4]: 399 mOsm/kg | Osmolarity ([3]; 200 mM Sodium Phosphate, target pH 6.0, t48 h): 393 mOsm/kg | Osmolarity ([3]; 200 mM Sodium Phosphate, target pH 7.4, t2 h): 330 mOsm/kg | Osmolarity ([3]; 200 mM Sodium Phosphate, target pH 7.4, t24 h): 310 mOsm/kg | Osmolarity ([3]; 200 mM Sodium Phosphate, target pH 7.4, t48 h): 310 mOsm/kg | Osmolarity ([3]; 200 mM Sodium Phosphate, target pH 8.5, t2 h): 282 mOsm/kg | Osmolarity ([3]; 200 mM Sodium Phosphate, target pH 8.5, t24 h): 267 mOsm/kg | Osmolarity ([3]; 200 mM Sodium Phosphate, target pH 8.5, t48 h): 285 mOsm/kg | Osmolarity ([3]; 200 mM Tromethamine, target pH 6.0, t2 h): 403 mOsm/kg | Osmolarity ([3]; 200 mM Tromethamine, target pH 6.0, t24 h): 406 mOsm/kg | Osmolarity ([3]; 200 mM Tromethamine, target pH 6.0, t48 h): 446 mOsm/kg | Osmolarity ([3]; 200 mM Tromethamine, target pH 7.4, t2 h): 434 mOsm/kg | Osmolarity ([3]; 200 mM Tromethamine, target pH 7.4, t24 h): 481 mOsm/kg | Osmolarity ([3]; 200 mM Tromethamine, target pH 7.4, t48 h): 482 mOsm/kg | Osmolarity ([3]; 200 mM Tromethamine, target pH 8.5, t2 h): 403 mOsm/kg | Osmolarity ([3]; 200 mM Tromethamine, target pH 8.5, t24 h): 347 mOsm/kg | Osmolarity ([3]; 200 mM Tromethamine, target pH 8.5, t48 h): 433 mOsm/kg | Osmolarity ([3]; 200 mM Tromethamine/HCl, target pH 6.0, t2 h): 121 mOsm/kg | Osmolarity ([3]; 200 mM Tromethamine/HCl, target pH 6.0, t24 h): 114 mOsm/kg | Osmolarity ([3]; 200 mM Tromethamine/HCl, target pH 6.0, t48 h): 127 mOsm/kg | Osmolarity ([3]; 200 mM Tromethamine/HCl, target pH 7.4, t2 h): 232 mOsm/kg | Osmolarity ([3]; 200 mM Tromethamine/HCl, target pH 7.4, t24 h): 215 mOsm/kg | Osmolarity ([3]; 200 mM Tromethamine/HCl, target pH 7.4, t48 h): 233 mOsm/kg | Apparent pH [3, 5]: 8.8 | Osmolarity [3, 5]: 177 mOsm/kg | Osmolarity ([3]; 200 mM Tromethamine/HCl, target pH 8.5, t24 h): 257 mOsm/kg | Osmolarity ([3]; 200 mM Tromethamine/HCl, target pH 8.5, t48 h): 252 mOsm/kg
SMILES: NS(=O)(=O)c1cc(C(=O)O)c(NCc2ccco2)cc1Cl [furosemide, 4-chloro-2-(furan-2-ylmethylamino)-5-sulfamoyl-benzoic acid]
